Measurements as given in PMC11794677, “Self‐Assembly of a Conjugate of Lipoic Acid With a Collagen‐Stimulating Pentapeptide Showing Cytocompatibility and Wound Healing Properties, and Chemical and Photolytic Disassembly” (Journal of Peptide Science, 2025).

Assays:
[1] = SAXS form factor fits (core-shell cylinder, generalized Gaussian coil); type: physicochemical; also: values in Å
Description: SAXS experiments were performed on beamline B21 [28] at Diamond (Didcot, UK). The sample solution was loaded into the 96‐well plate of an EMBL BioSAXS robot and then injected via an automated sample exchanger into a quartz capillary (1.8‐mm internal diameter) in the X‐ray beam. The quartz capillary was enclosed in a vacuum chamber, to avoid parasitic scattering. After the sample was injected into the capillary and reached the X‐ray beam, the flow was stopped during the SAXS data acquisition. Beamline B21 was operated with a fixed camera length (3.9 m) and fixed energy (12.4 keV). The images were captured using a PILATUS 2M detector. Data processing was performed using dedicated beamline software ScÅtter.
(§1) Cryo‐TEM was used to probe potential aggregation in solution above the CAC (3 wt% aqueous solution). […] The presence of such structures was also confirmed by SAXS and SANS data (Figure 3), which reveal form factor features that can be fitted using a core‐shell cylinder form factor, consistent with extended fibril structures. The cylinder radius is 25 Å, which is approximately equal to the estimated length of the molecule considering the lipid chain plus a pentapeptide in a β‐sheet conformation. […] For the SAXS data, it was necessary to include a contribution in the fits from unaggregated peptide, which gives rise to scattering at high q, described using a generalized Gaussian coil form factor (generalized refers to allowing the Flory exponent for the coil to vary from the value ν = 0.5 for an unperturbed coil). SANS data for 3 wt% solutions of lipoyl‐KTTKS in D2O can be fitted to a core‐shell cylinder form factor, consistent with SAXS, with fit parameters listed in Table S1. It was not necessary to allow for unaggregated monomer in fitting the SANS data, which may be because of the higher background and/or altered scattering contrast compared with SAXS. The cylinder radius and shell thickness obtained from the fits to the SANS data are in excellent agreement with the parameters obtained from the SAXS fit.
The ring‐opening of the lipoyl moiety can be achieved under reductive conditions. We examined the effect of chemical reduction on the self‐assembled structures of lipoyl‐KTTKS using TCEP [tris(2‐carboxyethyl)phosphine] as reductant. […] The SAXS data in Figure 3a show a considerable reduction in scattering intensity after addition of TCEP and the SANS profile in Figure 3b is barely above background after addition of TCEP. The SAXS data can be described using a form factor for monomer scattering with a power‐law intensity function at low q to account for a small fraction of irregular aggregates. The disruption of the fibrils upon TCEP addition was also confirmed by cryo‐TEM (images shown in Figure S1) because no aggregate structures were observed after addition of TCEP. Circular dichroism (CD) spectra shown in Figure 4 are characterized by a negative minimum in the CD spectrum at 196 nm along with the absence of defined features at higher wavelength, characteristic of a primarily disordered conformation. However, taking the difference between the CD spectra for lipoyl‐KTTKS without and with TCEP produces a spectrum (green spectrum in Figure 5) with a minimum near 215 nm, characteristic of β‐sheet structure. This is consistent with the observation that lipoyl‐KTTKS forms fibril‐like structures above a CAC detected by ThT binding to β‐sheet structure and as observed by cryo‐TEM, SAXS and SANS.
Table S1. SANS and SAXS data fitted parameters. Data fitted using SASfit,^[1-2] using a long cylindrical shell form factor model, with allowance for monomers via a Generalized Gaussian coil factor for SAXS data. […]

[2] = Cryo-TEM of aggregation in solution; type: physicochemical; conditions: 3 wt% aqueous solution, above the CAC
From the text: as §1
FIGURE 2 Cryo‐TEM image from a 3‐wt% aqueous solution of lipoyl‐KTTKS.

[3] = test system: type I/III collagen production by HDFa cells; assay: Collagen quantification, picrosirius red (Direct red 80) staining; type: cell-based, Human; conditions: 72 h incubation, different concentrations, absorbance 490 nm, ANOVA, n = 3
Description: To quantify collagen production, HDFa cells were seeded at a confluency of 1 × 10^4 cells/well into 96‐well plates in DMEM/F12 + 5 μg/mL of insulin and incubated for 3 days in DMEM/F12 without supplements as control, or DMEM/F12 + different concentrations of lipoyl‐KTTKS and conventional supplements (ascorbic acid 1 mM, TGFβ1 0.025 ng/mL and insulin 10 μg/mL). After incubation, the cells were washed three times with PBS and were fixed with cold ethanol 70%. The plate was transferred to a −80°C ultra‐freezer for 10 min and washed with water to remove any residual ethanol. After fixation, the collagen was incubated overnight in a solution containing Direct red 1 mg/mL in picric acid at 4°C. After this final incubation, the fixed cells were washed with distilled water to remove any residual dye, and the collagen and cells were then treated with 1‐mM NaOH for 10 min at room temperature. The resulting absorbance was measured at 490 nm using an Infinite F50 microplate reader (TECAN, Switzerland).
Because of the great commercial interest in KTTKS pentapeptides in cosmetic products with proposed antiaging properties resulting from cellular matrix stimulation, collagen production assays were performed using the technique of picrosirius red (commercial name, Direct red 80) staining (UV/vis absorbance) measurements.

[4] = SANS form factor fits (core-shell cylinder); type: physicochemical; conditions: 3 wt% in D2O, 25°C, long cylindrical shell form factor; also: values in Å
Description: Measurements were performed using the LOQ instrument at ISIS Neutron and Muon Source, Oxfordshire, UK. LOQ operates in time‐of‐flight mode, with a wavelength range from 2.7 to 10.5 Å. Two detectors recorded simultaneously small and wide scattering merged in a typical range of wavenumbers q = 0.006 Å^−1 to 1.2 Å^−1. The main detector was fixed at 4 m from the sample, and the size of the beam was 8 mm diameter at the sample position. The samples were placed in quartz cuvettes and arranged on a multislot sample changer with temperature controlled by a thermal bath at 25°C. The background was subtracted and the scattering intensity normalized to the absolute scale cross calibrating with a polystyrene standard. Data reduction was performed using Mantid.
Cryo‐TEM was used to probe potential aggregation in solution above the CAC (3 wt% aqueous solution). […] The presence of such structures was also confirmed by SAXS and SANS data (Figure 3), which reveal form factor features that can be fitted using a core‐shell cylinder form factor, consistent with extended fibril structures. The cylinder radius is 25 Å, which is approximately equal to the estimated length of the molecule considering the lipid chain plus a pentapeptide in a β‐sheet conformation. […]

[5] = 3 wt%, long cylindrical shell form factor
[6] = 3 wt%, long cylindrical shell form factor, listed as lipoyl-KTTKS

Substance: lipoyl‐KTTKS [peptide amphiphile comprising a conjugate of lipoic acid to pentapeptide KTTKS]
- Rg radius of gyration (monomer) ([1]; 3 wt% with 2.6 wt% TCEP, generalized Gaussian coil form factor): 6.3 Å
- Rg radius of gyration (unaggregated peptide) ([1]; 3 wt%, generalized Gaussian coil form factor): 22.0 Å
- L length [1, 5]: 987 Å
- Ro outer radius (Gaussian polydispersity ΔR) [1, 5]: 25 Å
- t shell thickness [1, 5]: 10 Å
- Ro outer radius (Gaussian polydispersity ΔR) [1, 6]: 25.0 ± 25.0 Å
- t shell thickness [1, 6]: 10.0 Å
- Aggregate structure seen by cryo-TEM [2]: short curly fibrils
- Collagen production compared with the control or conventional stimulants [3]: no statistically significant increase
- L length [4]: 800 Å
- t shell thickness [4]: 9.10 Å
